For 19 molecules, activation results are on record in patent US9593109B2, “Bicyclic agonists of GPR131 and uses thereof” (CYMABAY THERAPEUTICS, INC., priority 2011, dated 2017).

The assay concerns the target T1, human GPR131 (Homo sapiens, UniProt Q8TDU6).
T1 construct: expressed in transfected cells
T1 sequence (Q8TDU6 1-330): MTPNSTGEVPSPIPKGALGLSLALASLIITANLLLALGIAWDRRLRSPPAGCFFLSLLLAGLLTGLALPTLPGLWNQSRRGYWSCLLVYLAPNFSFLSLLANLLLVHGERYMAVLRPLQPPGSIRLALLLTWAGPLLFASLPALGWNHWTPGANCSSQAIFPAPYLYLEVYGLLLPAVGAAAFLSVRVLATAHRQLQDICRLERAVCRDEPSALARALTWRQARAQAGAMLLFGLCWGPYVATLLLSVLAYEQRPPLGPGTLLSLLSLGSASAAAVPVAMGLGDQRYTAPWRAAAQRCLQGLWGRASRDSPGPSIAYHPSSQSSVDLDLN
The assay can be described thus: Stimulation of cAMP (agonism of GPR131), FRET cAMP assay. The note with it: 0.5 h; 1.1 μM compound; compared to maximal stimulatory activity of lithocholic acid (LCA) determined at 3.3 μM; stable cell line expressing human GPR131; 37° C. for 30 minutes; read-out: Percent Activity @ 1.1 μM (of 3.3 uM LCA) (%). The assay is classed as cell-based. As to the method:
This assay was developed using a stable cell line expressing human GPR131.
To measure cAMP activity in response to GPR131 agonists, GPR131 cells suspended in DMEM/F12 medium with 1 mM IBMX were seeded in 384 well plates at 5000 cells per well. After incubating with test compounds at 37° C. for 30 minutes cAMP was measured using a fluorescene resonance energy transfer cAMP kit from Cis Bio (Bedford, Mass.) according to the manufacturer's instructions. Briefly, cells were lysed, and cAMP levels determined by competitive immunoassay using D2 labeled cAMP, and europium cryptate tagged anti cAMP antibody. Decreases in the FRET signal (fluorescence ratio (665 nm/620 […]) correspond to increases in intracellular cAMP levels.
Activities of test compounds in Table 1 below are expressed as percent activity at 1.1 μM compound compared to the maximal stimulatory activity of lithocholic acid (LCA) (determined at 3.3 μM LCA).
As for `Clc1ccc(Cl)c(-c2nc3ccccn3c2-c2nncn2-c2ccc3ncccc3c2)c1` [Compound 541, 6-(3-(2-(2,5-Dichlorophenyl)imidazo[1,2-a]pyridin-3-yl)-4H-1,2,4-triazol-4-yl)quinoline], the activation at 1.1 µM stood at 93.9%.

For `Cn1ncc2c(-n3cnnc3-c3c(-c4cc(Cl)ccc4Cl)nc4ccccn34)cccc21` [Compound 545, 4-(3-(2-(2,5-Dichlorophenyl)imidazo[1,2-a]pyridin-3-yl)-4H-1,2,4-triazol-4-yl)-1-methyl-1H-indazole], the activation at 1.1 µM amounted to 90.9%.

Turning to `Clc1ccc(-n2nnnc2-c2c(-c3cc(Cl)ccc3Cl)nc3occn23)cc1` [Compound 551, 5-(1-(4-Chlorophenyl)-1H-tetrazol-5-yl)-6-(2,5-dichlorophenyl)imidazo[2,1-b]oxazole], the activation at 1.1 µM was found to be 95.7%.

For `Clc1ccc(-n2nnnc2-c2c(-c3cc(Cl)ccc3Cl)nc3ccccn23)cc1` [Compound 552, 3-(1-(4-Chlorophenyl)-1H-tetrazol-5-yl)-2-(2,5-dichlorophenyl)imidazo[1,2-a]pyridine], the activation at 1.1 µM is 100%.

For `Clc1ccc(-n2cnnc2-c2c(-c3cc(Cl)ccc3Cl)nc3ccccn23)cc1` [Compound 553, 3-(4-(4-Chlorophenyl)-4H-1,2,4-triazol-3-yl)-2-(2,5-dichlorophenyl)imidazo[1,2-a]pyridine], the activation at 1.1 µM is 99.9%.

`Clc1ccc(-n2ncnc2-c2c(-c3cc(Cl)ccc3Cl)nc3ccccn23)cc1` [Compound 554, 3-(1-(4-Chlorophenyl)-1H-1,2,4-triazol-5-yl)-2-(2,5-dichlorophenyl)imidazo[1,2-a]pyridine]: the activation at 1.1 µM worked out at 99.9%.

Regarding `Clc1ccc(-n2nnnc2-c2c(-c3cc(Cl)ccc3Cl)nc3cccnn23)cc1` [Compound 555, 3-(1-(4-Chlorophenyl)-1H-tetrazol-5-yl)-2-(2,5-dichlorophenyl)imidazo[1,2-b]pyridazine], the activation at 1.1 µM came out at 100%.

Consider `Clc1ccc(-n2nnnc2-c2c(-c3cc(Cl)ccc3Cl)nc3cnccn23)cc1` [Compound 556, 3-(1-(4-Chlorophenyl)-1H-tetrazol-5-yl)-2-(2,5-dichlorophenyl)imidazo[1,2-a]pyrazine], for which the activation at 1.1 µM stood at 88.4%.

For the molecule `Clc1ccc(-n2ccnc2-c2c(-c3ccccc3Cl)nc3ccccn23)cc1` [Compound 557, 2-(2-Chlorophenyl)-3-(1-(4-chlorophenyl)-1H-imidazol-2-yl)imidazo[1,2-a]pyridine], the activation at 1.1 µM came out at 99.7%.

As for `Clc1ccc(-n2nnnc2-c2c(-c3cc(Cl)ccc3Cl)nc3n2CCCC3)cc1` [Compound 559, 3-(1-(4-Chlorophenyl)-1H-tetrazol-5-yl)-2-(2,5-dichlorophenyl)-5,6,7,8-tetrahydroimidazo[1,2-a]pyridine], the activation at 1.1 µM was 94.6%.

As for `Clc1ccc(-n2ccnc2-c2c(-c3cc(Cl)ccc3Cl)nc3n2CCCC3)cc1` [Compound 560, 3-(1-(4-Chlorophenyl)-1H-imidazol-2-yl)-2-(2,5-dichlorophenyl)-5,6,7,8-tetrahydroimidazo[1,2-a]pyridine], the activation at 1.1 µM came to 100%.

With `Clc1ccc(-n2ccnc2-c2c(-c3cc(Cl)ccc3Cl)nc3cccnn23)cc1` [Compound 561, 3-(1-(4-Chlorophenyl)-1H-imidazol-2-yl)-2-(2,5-dichlorophenyl)imidazo[1,2-b]pyridazine], the activation at 1.1 µM worked out at 100%.

Take `FC(F)(F)c1ccc(-n2nnnc2-c2c(-c3cc(Cl)ccc3Cl)nc3ccccn23)cc1` [Compound 562, 2-(2,5-Dichlorophenyl)-3-(1-(4-(trifluoromethyl)phenyl)-1H-tetrazol-5-yl)imidazo[1,2-a]pyridine]: the activation at 1.1 µM came to 97.9%.

For `FC(F)(F)c1ccc(-n2nnnc2-c2c(-c3cc(Cl)ccc3Cl)nc3cccnn23)cc1` [Compound 563, 2-(2,5-Dichlorophenyl)-3-(1-(4-(trifluoromethyl)phenyl)-1H-tetrazol-5-yl)imidazo[1,2-b]pyridazine], the activation at 1.1 µM turned out to be 99.5%.

For `FC(F)(F)c1ccc(-n2ccnc2-c2c(-c3cc(Cl)ccc3Cl)nc3ccccn23)cc1` [Compound 564, 2-(2,5-Dichlorophenyl)-3-(1-(4-(trifluoromethyl)phenyl)-1H-imidazol-2-yl)imidazo[1,2-a]pyridine], the activation at 1.1 µM stood at 100%.

Regarding `FC(F)(F)c1ccc(-n2ccnc2-c2c(-c3cc(Cl)ccc3Cl)nc3cccnn23)cc1` [Compound 565, 2-(2,5-Dichlorophenyl)-3-(1-(4-(trifluoromethyl)phenyl)-1H-imidazol-2-yl)imidazo[1,2-b]pyridazine], the activation at 1.1 µM worked out at 100%.

Take `N#Cc1ccc(-n2nnnc2-c2c(-c3cc(Cl)ccc3Cl)nc3ccccn23)cc1` [Compound 566, 4-(5-(2-(2,5-Dichlorophenyl)imidazo[1,2-a]pyridin-3-yl)-1H-tetrazol-1-yl)benzonitrile]: the activation at 1.1 µM stood at 99.7%.

On to `N#Cc1ccc(-n2ccnc2-c2c(-c3cc(Cl)ccc3Cl)nc3ccccn23)cc1` [Compound 567, 4-(2-(2-(2,5-Dichlorophenyl)imidazo[1,2-a]pyridin-3-yl)-1H-imidazol-1-yl)benzonitrile], for which the activation at 1.1 µM came out at 99.9%.

`Clc1cccc(-c2nc3ccccn3c2-c2nncn2-c2ccc3cn[nH]c3c2)c1` [Compound 568, 6-(3-(2-(3-Chlorophenyl)imidazo[1,2-a]pyridin-3-yl)-4H-1,2,4-triazol-4-yl)-1H-indazole]: the activation at 1.1 µM was 96%.
